Patent US8663607B2, “Ferrate(VI)-containing compositions and methods of using ferrate(VI)” (Battelle Memorial Institute, priority 2007, dated 2014)

Test: Stain removal from calcium deficient hydroxyapatite disks (human tooth model), tea stain
Method: Tea staining Solution: 200 mL of high-purity deionized (HPDI) water was heated to boiling in a 500-mL beaker. The beaker was removed from heat and 4 Lipton™ tea bags were added. The tea bags were allowed to soak for 5 minutes. The tea bags were pressed with a spatμLa upon removal to remove liquid.
Tea staining Procedure: A calcium-deficient hydroxyapatite (HAP) disk (Clarkson Chromatography Products) was placed into a 50-mL centrifuge tube with 10 mL of tea solution. The centrifuge tube was gently shaken by hand for 15 minutes. The tea solution was decanted and replaced with 10 mL of HPDI water and vortexed for 30 seconds. The water was decanted and replaced with 10 additional mL of HPDI water and vortexed for 30 seconds. The disk was removed with forceps and patted dry with a tissue. The disk was allowed to air dry at room temperature for at least one hour.
Oxidation resistant chelating buffer: 0.25M 1-Hydroxyethylidenediphosphonic acid (etridonic acid) (Dequest® 2010, Thermphos) (HEPA) was pH adjusted by microtitration with 10N NaOH. 1.28 g of 1-Hydroxyethylidenediphosphonic acid was to a 25-mL volumetric flask and brought to volume with HPDI water. The solution was transferred to a 50-mL beaker with a stir bar and pH adjusted using 10.04N NaOH, monitored with a calibrated pH meter. Aliquat 336® (Cognis) (also suitable is Aliquat 134®) (N-methyl-tri-(n-octyl)ammonium chloride), (N-methyl TOA) or “HEPA” chelating pH Buffer: 2.5-μL of N-methyl TOA was added to 5 mL of pH 7 HEPA buffer and sonicated for 1 minute. pH 7 Sodium Dodecyl Sulfate (SDS)/HEPA Buffer: 10 mg of SDS was added to 5 mL of pH 7 HEPA buffer and sonicated for 1 minute. pH 8 SDS/HEPA Buffer: 10 mg of SDS was added to 5 mL of pH 8 HEPA buffer and sonicated for 1 minute.
• A. A tea stained disk was placed into the bowl of the bowl of a watch glass and 100 μL of pH 7 HEPA buffer was pipetted onto the disk surface. 3.7 mg of potassium ferrate(VI) was added to the disk surface and mixed gently. […] The disk was rinsed at 10 minutes with HPDI water. […] 1 mL of pH 7 HEPA buffer was added followed by 9 mL of HPDI water. 9.7 mg of potassium ferrate(VI) was added. The tube was gently hand shaken for 10 minutes. The disk was removed and rinsed with HPDI water. […] 10 mg of potassium ferrate(VI) was added to 1 mL of pH 7 HEPA buffer in a 50 mL centrifuge tube. 9 mL HPDI water was added, and the solution was shaken for a few seconds followed by the addition of a tea stained HAP disk. The disk was removed at 10 minutes and rinsed with HPDI water. […] 1.3 mg of potassium ferrate(VI) added and mixed into the solution.

[1] = disk A-2: 30 mg calcium carbonate + 250 μL HPDI water, 10 mg, no chelating buffer, rinsed at 5 minutes
[2] = disk A: 100 μL pH 7 HEPA buffer, 3.7 mg added to disk surface, rinsed at 10 minutes
[3] = disk B-1: 10 mg calcium carbonate + 12 mg in 2 mL pH 8 SDS/HEPA buffer, 5 minutes, then 1 mL buffer 45 minutes
[4] = disk B: 1 mL pH 7 HEPA buffer + 9 mL water, 9.7 mg, shaken 10 minutes
[5] = disk E: 100 μL pH 7 HEPA buffer, 1.4 mg, 5 minutes, then 100 μL pH 7 HEPA buffer 5 minutes
[6] = disk F: 100 μL pH 7 HEPA buffer + one drop of N-methyl TOA (emulsion), 1 mg
[7] = disk G: 100 μL N-methyl TOA/HEPA buffer, 0.7 mg, rinsed at 5 minutes, then 100 μL buffer 5 minutes
[8] = disk H: 100 μL N-methyl TOA/HEPA buffer, 1.3 mg, 5 minutes, then 2 x 100 μL buffer 5 minutes each
[9] = disk I: 100 μL N-methyl TOA/HEPA buffer, 1.3 mg (uneven distribution), 5 minutes, then 200 μL buffer
[10] = disk J: 200 μL N-methyl TOA/HEPA buffer, 2.3 mg, 5 minutes, then 200 μL buffer 5 minutes
[11] = disk K: 9.9 mg premixed in 1 mL N-methyl TOA/HEPA buffer, disk fully covered 10 minutes, then 400 μL buffer 45 minutes
[12] = disk L: 100 μL pH 7 SDS/HEPA buffer, 1.3 mg, 10 minutes, then 100 μL buffer ten minutes
[13] = disk M: 1 mL of 29.3 mg in 3 mL pH 7 SDS/HEPA buffer, 3 minutes, then buffer soaks 8 and 35 minutes, extra rinse
[14] = disk N: 1 mL of 29.3 mg in 3 mL pH 7 SDS/HEPA buffer, 3 minutes, then buffer soaks 8 and 35 minutes, extra rinse
[15] = disk P: overnight tea stain, 0.75 mL of 25 mg in 1.5 mL pH 8 SDS/HEPA buffer, 5 minutes, then 1 mL buffer 45 minutes, rinsed again after drying one hour
[16] = disk Q: overnight tea stain, 0.75 mL of 25 mg in 1.5 mL pH 8 SDS/HEPA buffer, 5 minutes, then 1 mL buffer 45 minutes
[17] = disk S: tea stained disk treated the same way as P and Q (replicate)
[18] = disk U: treated the same way as P and Q, then submerged in HPDI water 45 minutes instead of drying

With potassium ferrate(VI) the “L* (lightness/darkness)” value [1] was 69.5, the “a* (blue/red)” value [1] was 14.4 and the “appearance of disk after treatment” value [1] was “the color was not removed”. For the same substance, the “b* (yellow/green)” value [1] was 26, the “reflectance of visible light at 450 nm” value [1] was 22.036 and the “reflectance of visible light at 750 nm” value [1] was 64.152. For the same substance, the “ΔE (versus tea stain)” value [1] was 29.21, the “L* (lightness/darkness)” value [2] was 72 and the “a* (blue/red)” value [2] was 2.6. The “appearance of disk after treatment” value [2] was “stained purple with rust stains”, the “b* (yellow/green)” value [2] was −1.1 and the “reflectance of visible light at 450 nm” value [2] was 44.547. For the same substance, the “reflectance of visible light at 750 nm” value [2] was 61.521, the “ΔE (versus tea stain)” value [2] was 13.57 and the “L* (lightness/darkness)” value [3] was 100.8. For the same substance, the “a* (blue/red)” value [3] was 0.5, the “appearance of disk after treatment” value [3] was “All stains were removed” and the “b* (yellow/green)” value [3] was 0.1. For the same substance, the “reflectance of visible light at 450 nm” value [3] was 100.124, the “reflectance of visible light at 750 nm” value [3] was 103.677 and the “ΔE (versus B-2, tea stained)” value [3] was 15.29. For the same substance, the “L* (lightness/darkness)” value [4] was 79.1, the “a* (blue/red)” value [4] was 1.6 and the “appearance of disk after treatment” value [4] was “stained purple with rust stains”. For the same substance, the “b* (yellow/green)” value [4] was −2, the “reflectance of visible light at 450 nm” value [4] was 57.457 and the “reflectance of visible light at 750 nm” value [4] was 69.889. For the same substance, the “ΔE (versus tea stain)” value [4] was 8.29, the “appearance of disk after treatment” value (disk C: 10 mg premixed in 1 mL pH 7 HEPA buffer + 9 mL water, disk removed at 10 minutes) was “stained purple” and the “L* (lightness/darkness)” value [5] was 90.1. The “a* (blue/red)” value [5] was 1.3, the “appearance of disk after treatment” value [5] was “lighter purple than previous examples” and the “b* (yellow/green)” value [5] was −2.2. The “reflectance of visible light at 450 nm” value [5] was 77.562, the “reflectance of visible light at 750 nm” value [5] was 87.011 and the “ΔE (versus unstained disk)” value [5] was 4.24. The “L* (lightness/darkness)” value [6] was 77, the “a* (blue/red)” value [6] was 2.1 and the “appearance of disk after treatment” value [6] was “purple with streaks where mixing occurred”. The “b* (yellow/green)” value [6] was 0.7, the “reflectance of visible light at 450 nm” value [6] was 44.547 and the “reflectance of visible light at 750 nm” value [6] was 68.873. The “ΔE (versus tea stain)” value [6] was 8.65, the “L* (lightness/darkness)” value [7] was 94 and the “a* (blue/red)” value [7] was 0.6. The “appearance of disk after treatment” value [7] was “purple color was removed but brown staining observed”, the “b* (yellow/green)” value [7] was −0.1 and the “reflectance of visible light at 450 nm” value [7] was 82.923. The “reflectance of visible light at 750 nm” value [7] was 92.128, the “ΔE (versus tea stain)” value [7] was 10.88 and the “L* (lightness/darkness)” value [8] was 93.6. For the same substance, the “a* (blue/red)” value [8] was 1.3, the “appearance of disk after treatment” value [8] was “light brown color” and the “b* (yellow/green)” value [8] was 0.6. The “reflectance of visible light at 450 nm” value [8] was 82.479, the “reflectance of visible light at 750 nm” value [8] was 93.202 and the “ΔE (versus tea stain)” value [8] was 10.06. The “L* (lightness/darkness)” value [9] was 91.2, the “a* (blue/red)” value [9] was −0.8 and the “appearance of disk after treatment” value [9] was “More decoloring was observed at the center”. For the same substance, the “b* (yellow/green)” value [9] was −4.7, the “reflectance of visible light at 450 nm” value [9] was 83.889 and the “reflectance of visible light at 750 nm” value [9] was 83.121. The “ΔE (versus tea stain)” value [9] was 11.69, the “L* (lightness/darkness)” value [10] was 87.5 and the “a* (blue/red)” value [10] was −0.1. The “appearance of disk after treatment” value [10] was “Rust spots observed”, the “b* (yellow/green)” value [10] was −3.9 and the “reflectance of visible light at 450 nm” value [10] was 44.547. The “reflectance of visible light at 750 nm” value [10] was 78.071, the “ΔE (versus tea stain)” value [10] was 9.10 and the “L* (lightness/darkness)” value [11] was 100.8. The “a* (blue/red)” value [11] was −0.3, the “appearance of disk after treatment” value [11] was “Significant color removal was observed” and the “b* (yellow/green)” value [11] was −2.1. The “reflectance of visible light at 450 nm” value [11] was 102.827, the “reflectance of visible light at 750 nm” value [11] was 103.311 and the “ΔE (versus tea stain)” value [11] was 17.77. For the same substance, the “L* (lightness/darkness)” value [12] was 99.1, the “a* (blue/red)” value [12] was −0.4 and the “appearance of disk after treatment” value [12] was “Most of the color was removed from the center of the disk”. The “b* (yellow/green)” value [12] was −2.2, the “reflectance of visible light at 450 nm” value [12] was 99.384 and the “reflectance of visible light at 750 nm” value [12] was 98.847. For the same substance, the “ΔE (versus tea stain)” value [12] was 16.32, the “L* (lightness/darkness)” value [13] was 100.1 and the “a* (blue/red)” value [13] was 0. The “b* (yellow/green)” value [13] was −1.9, the “reflectance of visible light at 450 nm” value [13] was 100.820 and the “reflectance of visible light at 750 nm” value [13] was 102.480. The “ΔE (versus disk 0)” value [13] was 12.15, the “L* (lightness/darkness)” value [14] was 100.6 and the “a* (blue/red)” value [14] was −0.3. For the same substance, the “b* (yellow/green)” value [14] was −1.4, the “reflectance of visible light at 450 nm” value [14] was 101.538 and the “reflectance of visible light at 750 nm” value [14] was 101.930. The “ΔE (versus disk O)” value [14] was 12.63, the “L* (lightness/darkness)” value [15] was 103.5 and the “a* (blue/red)” value [15] was −2.1. The “b* (yellow/green)” value [15] was −3.2, the “reflectance of visible light at 450 nm” value [15] was 111.059 and the “reflectance of visible light at 750 nm” value [15] was 103.081. The “ΔE (versus disk R)” value [15] was 25.40, the “L* (lightness/darkness)” value [16] was 101.8 and the “a* (blue/red)” value [16] was −1.2. For the same substance, the “b* (yellow/green)” value [16] was −0.7, the “reflectance of visible light at 450 nm” value [16] was 103.784 and the “reflectance of visible light at 750 nm” value [16] was 101.164. The “ΔE (versus disk R)” value [16] was 22.83, the “L* (lightness/darkness)” value [17] was 99.3 and the “a* (blue/red)” value [17] was 0. For the same substance, the “reflectance of visible light at 450 nm” value [17] was 98.555, the “reflectance of visible light at 750 nm” value [17] was 98.659 and the “L* (lightness/darkness)” value [18] was 96.9. The “a* (blue/red)” value [18] was 0.4, the “appearance of disk after treatment” value [18] was “Color was removed as effectively as with a dried sample” and the “b* (yellow/green)” value [18] was 0.3. The “reflectance of visible light at 450 nm” value [18] was 89.892, the “reflectance of visible light at 750 nm” value [18] was 94.030 and the “ΔE (versus tea stain)” value [18] was 13.44.
